From the NIST ThermoML archive (doi:10.1016/j.jct.2007.11.011)
± gives the expanded uncertainty stated by the source.

Assay: xn = mol fraction of the nth substance listed
Conditions: Liquid

CCOS(=O)(=O)[O-].CCn1cc[n+](C)c1 [1-ethyl-3-methylimidazolium ethyl sulfate] + CO
mass density [kg/m3]
Conditions | 100 kPa | 2500 kPa | 5000 kPa | 10000 kPa | 15000 kPa | 20000 kPa | 25000 kPa | 30000 kPa | 35000 kPa
303.15 K, x1 = 0.04781 | – | – | – | – | – | 892.79 ± 0.95 | 896.28 ± 1 | 899.65 ± 1.1 | 902.86 ± 1.2
303.15 K, x1 = 0.1026 | – | – | – | – | – | 965.4 ± 0.57 | 968.54 ± 0.58 | 971.57 ± 0.59 | 974.42 ± 0.59
303.15 K, x1 = 0.1977 | – | – | – | – | – | 1047.97 ± 0.65 | 1050.68 ± 0.7 | 1053.34 ± 0.76 | 1055.86 ± 0.83
303.15 K, x1 = 0.2432 | – | – | – | – | – | 1076.28 ± 0.78 | 1078.9 ± 0.87 | 1081.44 ± 0.96 | 1083.87 ± 1.1
303.15 K, x1 = 0.3026 | – | – | – | – | – | 1106.82 ± 0.95 | 1109.29 ± 1.1 | 1111.72 ± 1.2 | 1114.04 ± 1.4
303.15 K, x1 = 0.3887 | – | – | – | – | 1137.67 ± 1 | 1140.05 ± 1.2 | 1142.39 ± 1.4 | 1144.7 ± 1.6 | 1146.89 ± 1.7
303.15 K, x1 = 0.485 | – | – | – | – | 1165.38 ± 1.2 | 1167.67 ± 1.4 | 1169.9 ± 1.6 | 1172.11 ± 1.8 | 1174.2 ± 2
303.15 K, x1 = 0.589 | – | – | – | – | 1187.91 ± 1.3 | 1190.1 ± 1.5 | 1192.25 ± 1.8 | 1194.38 ± 2 | 1196.4 ± 2.2
303.15 K, x1 = 0.7289 | – | – | – | – | 1210.81 ± 1.4 | 1212.92 ± 1.7 | 1214.99 ± 1.9 | 1217.04 ± 2.2 | 1219 ± 2.5
303.15 K, x1 = 0.8521 | – | – | – | – | 1225.51 ± 1.5 | 1227.56 ± 1.8 | 1229.58 ± 2.1 | 1231.59 ± 2.4 | 1233.49 ± 2.6
303.15 K, x1 = 0.9397 | – | – | – | – | 1234.67 ± 1.6 | 1236.7 ± 1.9 | 1238.71 ± 2.1 | 1240.68 ± 2.5 | 1242.56 ± 2.8
313.15 K, x1 = 0.04781 | 868.71 ± 0.61 | 870.87 ± 0.65 | 873 ± 0.7 | 877.12 ± 0.8 | 881.03 ± 0.9 | 884.83 ± 0.99 | 888.46 ± 1.1 | 891.58 ± 1.2 | 896.52 ± 1.3
313.15 K, x1 = 0.1026 | 943.67 ± 0.51 | 945.44 ± 0.52 | 947.28 ± 0.54 | 950.87 ± 0.56 | 954.31 ± 0.59 | 957.65 ± 0.61 | 960.89 ± 0.62 | 964.01 ± 0.64 | 967.07 ± 0.64
313.15 K, x1 = 0.1977 | 1028.79 ± 0.49 | 1030.21 ± 0.5 | 1031.77 ± 0.51 | 1034.78 ± 0.54 | 1037.72 ± 0.57 | 1040.6 ± 0.61 | 1043.41 ± 0.66 | 1046.12 ± 0.71 | 1048.8 ± 0.77
313.15 K, x1 = 0.2432 | 1057.64 ± 0.52 | 1059.08 ± 0.54 | 1060.59 ± 0.56 | 1063.49 ± 0.61 | 1066.28 ± 0.68 | 1069.03 ± 0.75 | 1071.73 ± 0.83 | 1074.34 ± 0.91 | 1076.92 ± 1
313.15 K, x1 = 0.3026 | 1088.94 ± 0.56 | 1090.22 ± 0.59 | 1091.62 ± 0.63 | 1094.33 ± 0.71 | 1097 ± 0.81 | 1099.6 ± 0.91 | 1102.15 ± 1 | 1104.62 ± 1.2 | 1107.08 ± 1.3
313.15 K, x1 = 0.3887 | 1122.96 ± 0.61 | 1124.22 ± 0.66 | 1125.52 ± 0.71 | 1128.06 ± 0.83 | 1130.57 ± 0.97 | 1133.05 ± 1.1 | 1135.46 ± 1.3 | 1137.8 ± 1.5 | 1140.13 ± 1.7
313.15 K, x1 = 0.485 | 1151.19 ± 0.65 | 1152.35 ± 0.72 | 1153.6 ± 0.79 | 1156.03 ± 0.94 | 1158.42 ± 1.1 | 1160.76 ± 1.3 | 1163.07 ± 1.5 | 1165.3 ± 1.7 | 1167.55 ± 1.9
313.15 K, x1 = 0.589 | 1174.15 ± 0.69 | 1175.21 ± 0.76 | 1176.41 ± 0.85 | 1178.75 ± 1 | 1181.04 ± 1.2 | 1183.3 ± 1.5 | 1185.51 ± 1.7 | 1187.68 ± 1.9 | 1189.83 ± 2.2
313.15 K, x1 = 0.7289 | 1197.48 ± 0.73 | 1198.52 ± 0.82 | 1199.65 ± 0.91 | 1201.89 ± 1.1 | 1204.09 ± 1.4 | 1206.26 ± 1.6 | 1208.39 ± 1.9 | 1210.48 ± 2.2 | 1212.56 ± 2.4
313.15 K, x1 = 0.8521 | 1212.41 ± 0.76 | 1213.23 ± 0.85 | 1214.31 ± 0.96 | 1216.48 ± 1.2 | 1218.62 ± 1.5 | 1220.72 ± 1.8 | 1222.81 ± 2 | 1224.83 ± 2.3 | 1226.88 ± 2.6
313.15 K, x1 = 0.9397 | 1221.68 ± 0.78 | 1222.7 ± 0.88 | 1223.82 ± 0.99 | 1225.96 ± 1.3 | 1228.06 ± 1.5 | 1230.16 ± 1.8 | 1232.21 ± 2.1 | 1234.23 ± 2.4 | 1236.23 ± 2.7
323.15 K, x1 = 0.04781 | 859.88 ± 0.62 | 862.14 ± 0.67 | 864.43 ± 0.73 | – | – | – | – | – | –
323.15 K, x1 = 0.1026 | 935.3 ± 0.52 | 937.17 ± 0.53 | 939.08 ± 0.55 | – | – | – | – | – | –
323.15 K, x1 = 0.1977 | 1020.88 ± 0.49 | 1022.39 ± 0.49 | – | – | – | – | – | – | –
323.15 K, x1 = 0.2432 | 1049.97 ± 0.51 | 1051.46 ± 0.53 | – | – | – | – | – | – | –
323.15 K, x1 = 0.3026 | 1081.45 ± 0.55 | 1082.65 ± 0.58 | – | – | – | – | – | – | –
323.15 K, x1 = 0.3887 | 1115.61 ± 0.6 | 1116.83 ± 0.64 | – | – | – | – | – | – | –
323.15 K, x1 = 0.485 | 1143.95 ± 0.64 | 1145.15 ± 0.7 | – | – | – | – | – | – | –
323.15 K, x1 = 0.589 | 1167 ± 0.68 | 1168.12 ± 0.75 | – | – | – | – | – | – | –
323.15 K, x1 = 0.7289 | 1190.46 ± 0.72 | 1191.53 ± 0.8 | – | – | – | – | – | – | –
323.15 K, x1 = 0.8521 | 1205.38 ± 0.75 | 1206.3 ± 0.84 | – | – | – | – | – | – | –
323.15 K, x1 = 0.9397 | 1214.87 ± 0.76 | 1215.9 ± 0.86 | – | – | – | – | – | – | –
